Results published in the supplement of paper PMC10307832.

Legend:
Assay in all cases: relative viability (nuclei count vs DMSO), 5 days (fraction); higher = more cells survive
KIN001-266 + Palbociclib = compound: CCN1CCC(CC1)N2C=C(N=N2)CNC3=CC4=C(C(=CN=C4C(=C3)Cl)C#N)NC5=CC(=C(C=C5)F)Cl [KIN001-266] + CC(=O)c1c(C)c2cnc(Nc3ccc(N4CCNCC4)cn3)nc2n(C2CCCC2)c1=O [Palbociclib] (partner 0.5 µM)
Procedure, shortened: (§1)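 Relative viability equals treated-well nuclei counts divided by vehicle-well nuclei counts. Counts came from 4× images of lung cancer cell lines grown in 1536-well plates for 5 days after pin-tool dosing on the day after seeding. Dosing used one drug alone or a fixed anchor-drug dose plus five library-drug doses (not always all listed) in √10 steps, and values are medians of duplicate plates.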

KIN001-266 + Decitabine = compound: CCN1CCC(CC1)N2C=C(N=N2)CNC3=CC4=C(C(=CN=C4C(=C3)Cl)C#N)NC5=CC(=C(C=C5)F)Cl [KIN001-266] + Nc1ncn([C@H]2C[C@H](O)[C@@H](CO)O2)c(=O)n1 [Decitabine] (partner 2 µM)
Procedure, shortened: as §1

KIN001-266 + Phenformin = compound: CCN1CCC(CC1)N2C=C(N=N2)CNC3=CC4=C(C(=CN=C4C(=C3)Cl)C#N)NC5=CC(=C(C=C5)F)Cl [KIN001-266] + N=C(N)NC(=N)NCCc1ccccc1 [Phenformin] (partner 250 µM)
Procedure, shortened: as §1

KIN001-266 + Pictilisib = compound: CCN1CCC(CC1)N2C=C(N=N2)CNC3=CC4=C(C(=CN=C4C(=C3)Cl)C#N)NC5=CC(=C(C=C5)F)Cl [KIN001-266] + CS(=O)(=O)N1CCN(Cc2cc3nc(-c4cccc5[nH]ncc45)nc(N4CCOCC4)c3s2)CC1 [Pictilisib] (partner 1 µM)
Procedure, shortened: as §1

| Cell Line | relative viability (KIN001-266 + Palbociclib; first compound 0.08 µM) | relative viability (KIN001-266 + Palbociclib; first compound 0.253 µM) | relative viability (KIN001-266 + Palbociclib; first compound 0.8 µM) | relative viability (KIN001-266 + Palbociclib; first compound 2.53 µM) | relative viability (KIN001-266 + Palbociclib; first compound 8 µM) | relative viability (KIN001-266 + Decitabine; first compound 0.08 µM) | relative viability (KIN001-266 + Decitabine; first compound 0.253 µM) | relative viability (KIN001-266 + Decitabine; first compound 0.8 µM) | relative viability (KIN001-266 + Decitabine; first compound 2.53 µM) | relative viability (KIN001-266 + Decitabine; first compound 8 µM) | relative viability (KIN001-266 + Phenformin; first compound 0.08 µM) | relative viability (KIN001-266 + Phenformin; first compound 0.253 µM) | relative viability (KIN001-266 + Phenformin; first compound 0.8 µM) | relative viability (KIN001-266 + Phenformin; first compound 2.53 µM) | relative viability (KIN001-266 + Phenformin; first compound 8 µM) | relative viability (KIN001-266 + Pictilisib; first compound 0.08 µM) | relative viability (KIN001-266 + Pictilisib; first compound 0.253 µM) | relative viability (KIN001-266 + Pictilisib; first compound 0.8 µM) | relative viability (KIN001-266 + Pictilisib; first compound 2.53 µM) | relative viability (KIN001-266 + Pictilisib; first compound 8 µM) |
| --- | --- | --- | --- | --- | --- | --- | --- | --- | --- | --- | --- | --- | --- | --- | --- | --- | --- | --- | --- | --- |
| HOP-62 | 0.473 | 0.472 | 0.457 | 0.479 | 0.485 | 0.224 | 0.215 | 0.287 | 0.204 | 0.217 | 0.683 | 0.694 | 0.688 | 0.734 | 0.629 | 0.592 | 0.813 | 0.728 | 0.372 | 0.506 |
| NCI-H358 | 0.138 | 0.126 | 0.137 | 0.133 | 0.171 | 0.209 | 0.219 | 0.197 | 0.212 | 0.173 | 0.361 | 0.367 | 0.343 | 0.277 | 0.251 | 0.382 | 0.355 | 0.343 | 0.3 | 0.316 |
| SK-MES-1 | 0.331 | 0.352 | 0.28 | 0.336 | 0.316 | 0.383 | 0.37 | 0.386 | 0.391 | 0.433 | 0.648 | 0.695 | 0.693 | 0.519 | 0.459 | 0.304 | 0.351 | 0.37 | 0.408 | 0.316 |
| NCI-H1666 | 0.61 | 0.668 | 0.601 | 0.664 | 0.655 | 0.806 | 0.737 | 0.662 | 0.725 | 0.754 | 0.547 | 0.627 | 0.573 | 0.581 | 0.574 | 0.608 | 0.523 | 0.49 | 0.367 | 0.347 |
| NCI-H1355 | 0.41 | 0.381 | 0.438 | 0.415 | 0.387 | 0.365 | 0.352 | 0.357 | 0.374 | 0.346 | 0.454 | 0.419 | 0.441 | 0.414 | 0.373 | 0.481 | 0.408 | 0.399 | 0.303 | 0.378 |
| HCC-827 | 0.443 | 0.492 | 0.374 | 0.471 | 0.467 | 0.327 | 0.382 | 0.153 | 0.28 | 0.268 | 0.439 | 0.404 | 0.189 | 0.318 | 0.286 | 0.855 | 1.09 |  | 0.785 | 0.837 |
| HARA | 0.237 | 0.27 | 0.261 | 0.237 | 0.18 | 0.416 | 0.616 | 0.635 | 0.57 | 0.439 | 0.455 | 0.483 | 0.433 | 0.457 | 0.295 | 0.515 | 0.466 | 0.507 | 0.444 | 0.291 |
| HCC-366 | 0.425 | 0.371 | 0.302 | 0.407 | 0.403 | 0.359 | 0.362 | 0.221 | 0.346 | 0.317 | 0.657 | 0.644 | 0.596 | 0.567 | 0.509 | 0.132 | 0.114 | 0.107 | 0.154 | 0.156 |
| NCI-H322M | 0.455 | 0.479 | 0.477 | 0.387 | 0.448 | 0.733 | 0.745 | 0.74 | 0.648 | 0.672 | 0.841 | 0.835 | 0.822 | 0.743 | 0.747 | 0.593 | 0.713 | 0.451 | 0.456 | 0.484 |
| NCI-H2347 | 0.445 | 0.468 | 0.401 | 0.442 | 0.404 | 0.64 | 0.643 | 0.56 | 0.622 | 0.458 | 0.405 | 0.428 | 0.435 | 0.519 | 0.24 | 0.663 | 0.698 | 0.476 | 0.422 | 0.485 |
| NCI-H1975 | 0.709 | 0.553 | 0.551 | 0.609 | 0.505 | 0.391 | 0.373 | 0.377 | 0.404 | 0.39 | 0.416 | 0.402 | 0.431 | 0.422 | 0.36 | 0.316 | 0.308 | 0.304 | 0.294 | 0.326 |
| UMC-11 | 0.293 | 0.338 | 0.304 | 0.329 | 0.391 | 0.646 | 0.576 | 0.698 | 0.66 | 0.603 | 0.336 | 0.381 | 0.333 | 0.316 | 0.251 | 0.808 | 0.841 | 0.827 | 0.5 | 0.677 |
| ABC-1 | 0.789 | 0.799 | 0.598 | 0.65 | 0.558 | 1.19 | 1.18 | 1.07 | 1.09 | 0.855 | 0.255 | 0.241 | 0.283 | 0.251 | 0.312 | 0.864 | 0.927 | 0.926 | 0.65 | 0.547 |
| A-427 | 0.511 | 0.524 | 0.5 | 0.493 | 0.526 | 0.616 | 0.566 | 0.521 | 0.508 | 0.535 | 0.357 | 0.307 | 0.289 | 0.275 | 0.247 | 0.778 | 0.735 | 0.582 | 0.72 | 0.754 |
| LCLC-97TM1 | 0.201 | 0.233 | 0.216 |  | 0.235 | 0.22 | 0.226 | 0.226 |  | 0.168 | 0.414 | 0.442 | 0.413 | 0.41 | 0.407 | 0.198 | 0.264 | 0.192 | 0.16 | 0.215 |
| HCC-15 | 0.707 | 0.806 | 0.593 | 0.608 | 0.509 | 0.679 | 0.691 | 0.539 | 0.497 | 0.488 | 0.48 | 0.472 | 0.421 | 0.43 | 0.34 | 0.769 | 0.765 | 0.594 | 0.674 | 0.472 |
| NCI-H647 | 0.432 | 0.399 | 0.428 | 0.479 | 0.351 | 0.4 | 0.385 | 0.344 | 0.357 | 0.336 | 0.65 | 0.552 | 0.557 | 0.468 | 0.426 | 0.461 | 0.405 | 0.491 | 0.282 | 0.414 |
| SW 1573 | 0.39 | 0.376 | 0.457 | 0.426 | 0.356 | 0.504 | 0.447 | 0.699 | 0.427 | 0.429 | 0.347 | 0.425 | 0.334 | 0.262 | 0.165 | 0.523 | 0.448 | 0.502 | 0.474 | 0.39 |
| NCI-H1651 | 0.528 | 0.518 | 0.525 | 0.533 | 0.531 | 0.629 | 0.599 | 0.546 | 0.572 | 0.634 | 0.355 | 0.383 | 0.316 | 0.508 | 0.325 | 0.582 | 0.601 | 0.51 | 0.633 | 0.435 |
| NCI-H1792 | 0.675 | 0.719 | 0.637 | 0.681 | 0.638 | 0.543 | 0.562 | 0.508 | 0.522 | 0.463 | 0.26 | 0.223 | 0.17 | 0.123 | 0.265 | 0.312 | 0.282 | 0.325 | 0.305 | 0.265 |
| NCI-H2023 | 0.333 | 0.383 | 0.388 | 0.289 | 0.288 | 0.21 | 0.217 | 0.217 | 0.216 | 0.289 | 0.378 | 0.391 | 0.401 | 0.304 | 0.28 | 0.242 | 0.293 | 0.267 | 0.259 | 0.232 |
| COR-L 105 | 0.399 | 0.386 | 0.376 | 0.407 | 0.436 | 0.584 | 0.661 | 0.641 | 0.725 | 0.677 | 0.48 | 0.641 | 0.534 | 0.641 | 0.431 | 0.422 | 0.44 | 0.352 | 0.452 | 0.43 |
| NCI-H1734 | 0.342 | 0.539 | 0.345 | 0.321 | 0.294 | 0.513 | 0.512 | 0.421 | 0.48 | 0.433 | 0.416 | 0.387 | 0.405 | 0.357 | 0.321 | 0.521 | 0.452 | 0.454 | 0.418 | 0.43 |
| NCI-H3122 | 0.155 | 0.204 | 0.176 | 0.233 | 0.209 | 0.435 | 0.472 | 0.426 | 0.442 | 0.326 | 0.349 | 0.367 | 0.325 | 0.274 | 0.307 | 0.573 | 0.615 | 0.494 | 0.559 | 0.544 |
| HCC-78 | 0.506 | 0.518 | 0.476 | 0.431 | 0.415 | 0.813 | 0.684 | 0.675 | 0.759 | 0.715 | 0.714 | 0.664 |  | 0.656 | 0.806 | 0.234 | 0.193 | 0.174 | 0.253 | 0.259 |
| NCI-H2085 | 0.478 | 0.494 | 0.504 | 0.461 | 0.38 | 0.567 | 0.57 | 0.517 | 0.474 | 0.499 | 0.855 | 0.741 | 0.663 | 0.669 | 0.632 | 0.524 | 0.452 | 0.421 | 0.462 | 0.458 |
